{"source": "patent US11452725B2", "about": "“Chiral diaryl macrocycles and uses thereof” (TURNING POINT THERAPEUTICS, INC., priority 2015, dated 2022)", "key": {"HCK": {"target": "T1, HCK (Homo sapiens, UniProt P08631)", "T1 construct": "purchased Reaction Biology Corporation (contract assay)", "assay": "Biochemical kinase assay (Reaction Biology)", "conditions": "10 μM ATP"}, "JAK3": {"target": "T2, JAK3 (Homo sapiens, UniProt P52333)", "T2 construct": "purchased Reaction Biology Corporation (contract assay)", "assay": "Biochemical kinase assay (Reaction Biology)", "conditions": "10 μM ATP"}, "BLK": {"target": "T3, BLK (Homo sapiens, UniProt P51451)", "T3 construct": "purchased Reaction Biology Corporation (contract assay)", "assay": "Biochemical kinase assay (Reaction Biology)", "conditions": "10 μM ATP"}, "[1]": {"system": "Ba/F3 CD74-ROS1 G2032R cell line", "assay": "Cell proliferation assay (CellTiter-Glo)", "type": "cell-based", "conditions": "Mus musculus, BaF3; 72 hours"}, "Karpas 299 tumors": {"system": "Karpas 299 tumors", "assay": "Karpas 299 ALCL subcutaneous xenograft model", "type": "in vivo, SCID/Beige mice", "conditions": "50 mg/kg BID orally, seven days"}, "BTK": {"target": "T4, BTK (Homo sapiens, UniProt Q06187)", "T4 construct": "purchased Reaction Biology Corporation (contract assay)", "assay": "Biochemical kinase assay (Reaction Biology)", "conditions": "10 μM ATP"}, "EGFR": {"system": "EGFR", "assay": "EGFR expression by immunoblotting in H2228 cells", "type": "cell-based, human", "conditions": "4 and 24 hour exposure, 0-1000 nM", "procedure": "(§1) NSCLC cell line H2228 (harboring endogenous EML4-ALK fusion gene) was cultured in RPMI medium supplemented with 10% fetal bovine serum and 100 U/mL of penicillin/streptomycin. Ba/F3 and NIH3T3 cells stably expressing ROS1, or TRKA, or TRKB, or TRKC (WT or mutant) were cultured as mentioned above. […] Cells were collected after treatment and lysed in RIPA buffer (50 mM Tris, pH 7.4, 150 mM NaCl, 1% NP-40, 0.5% Deoxycholate, 0.1% SDS) supplemented with 10 mM EDTA, 1× Halt protease and phosphatase inhibitors (Thermo Scientific). Protein lysates (approximately 20 μg) was resolved on 4-12% Bolt Bis-Tris precasted gels with MES running buffer (Life Technologies), transferred to nitrocellulose membranes using Trans-Blot Turbo Transfer System (Bio-Rad) and detected with antibodies targeting phosphorylated phosphorylated ROS1 and total ROS1 (Cell Signaling Technology), phosphorylated TRK A/B (Cell Signaling Technology), total TRKA antibody (Santa Cruz Biotechnology), phosphorylated SRC Y416 (Cell Signaling Technology), total SRC (Cell Signaling Technology), phosphorylated FAK Y576/577 (Cell Signaling Technology), total FAK (Cell Signaling Technology), phosphorylated paxillin Y118 (Cell Signaling Technology), total paxillin (Cell Signaling Technology), phosphorylated EGFR and total EGFR, CD44, and Tubulin (Sigma). […]"}, "KM12 cell line": {"system": "KM12 cell line", "assay": "cells", "conditions": "Homo sapiens, KM12, 72 h, read-out: Cell proliferation of KM12 cell line IC50"}, "PYK2": {"target": "T5, PYK2 (Homo sapiens, UniProt Q14289)", "T5 construct": "purchased Reaction Biology Corporation (contract assay)", "assay": "Biochemical kinase assay (Reaction Biology)", "conditions": "10 μM ATP"}, "STAT5": {"system": "STAT5", "assay": "Immunoblotting cellular phosphorylation assay, SET-2 cells (JAK2 V617F)", "type": "cell-based", "conditions": "Homo sapiens, SET-2, 4 h, 4 hours treatment, read-out: STAT5 phosphorylation of SET-2 cell line IC50", "procedure": "NSCLC cell line H2228 (harboring endogenous EML4-ALK fusion gene), HCC78 cells (harboring endogenous SLC34A2-ROS1 fusion gene), Karpas-299 cells (harboring endogenous NPM-ALK fusion gene) or SET-2 (harboring endogenous JAK2V617F activating mutation) were cultured in RPMI medium, and KM12 (harboring endogenous TPM3-TRKA fusion gene) cell line was cultured in DMEM medium, both supplemented with 10% fetal bovine serum and 100 U/mL of penicillin/streptomycin. Ba/F3 and NIH3T3 cells stably expressing ALK or ROS1 (WT or mutant) were culture as mentioned above. […] Protein lysates (approximately 20 μg) was resolved on 4-12% Bolt Bis-Tris precasted gels with MES running buffer (Life Technologies), transferred to nitrocellulose membranes using Trans-Blot Turbo Transfer System (Bio-Rad) and detected with antibodies targeting phosphorylated ALK Y1604 (Cell Signaling Technology), total ALK (Cell Signaling Technology), phosphorylated ROS1 and total ROS1 (Cell Signaling Technology), phosphorylated TRK A/B (Cell Signaling Technology), total TRKA antibody (Santa Cruz Biotechnology), phosphorylated STAT3 and STAT5, total STAT3 and STAT5 (Cell Signaling Technology), phosphorylated AKT (Cell Signaling Technology), total AKT (Cell Signaling Technology), phosphorylated ERK (Cell Signaling Technology), total ERK (Cell Signaling Technology) and Tubulin (Sigma). […]"}, "FAK": {"target": "FAK (Homo sapiens, UniProt Q05397)", "sequence (Q05397 whole entry)": "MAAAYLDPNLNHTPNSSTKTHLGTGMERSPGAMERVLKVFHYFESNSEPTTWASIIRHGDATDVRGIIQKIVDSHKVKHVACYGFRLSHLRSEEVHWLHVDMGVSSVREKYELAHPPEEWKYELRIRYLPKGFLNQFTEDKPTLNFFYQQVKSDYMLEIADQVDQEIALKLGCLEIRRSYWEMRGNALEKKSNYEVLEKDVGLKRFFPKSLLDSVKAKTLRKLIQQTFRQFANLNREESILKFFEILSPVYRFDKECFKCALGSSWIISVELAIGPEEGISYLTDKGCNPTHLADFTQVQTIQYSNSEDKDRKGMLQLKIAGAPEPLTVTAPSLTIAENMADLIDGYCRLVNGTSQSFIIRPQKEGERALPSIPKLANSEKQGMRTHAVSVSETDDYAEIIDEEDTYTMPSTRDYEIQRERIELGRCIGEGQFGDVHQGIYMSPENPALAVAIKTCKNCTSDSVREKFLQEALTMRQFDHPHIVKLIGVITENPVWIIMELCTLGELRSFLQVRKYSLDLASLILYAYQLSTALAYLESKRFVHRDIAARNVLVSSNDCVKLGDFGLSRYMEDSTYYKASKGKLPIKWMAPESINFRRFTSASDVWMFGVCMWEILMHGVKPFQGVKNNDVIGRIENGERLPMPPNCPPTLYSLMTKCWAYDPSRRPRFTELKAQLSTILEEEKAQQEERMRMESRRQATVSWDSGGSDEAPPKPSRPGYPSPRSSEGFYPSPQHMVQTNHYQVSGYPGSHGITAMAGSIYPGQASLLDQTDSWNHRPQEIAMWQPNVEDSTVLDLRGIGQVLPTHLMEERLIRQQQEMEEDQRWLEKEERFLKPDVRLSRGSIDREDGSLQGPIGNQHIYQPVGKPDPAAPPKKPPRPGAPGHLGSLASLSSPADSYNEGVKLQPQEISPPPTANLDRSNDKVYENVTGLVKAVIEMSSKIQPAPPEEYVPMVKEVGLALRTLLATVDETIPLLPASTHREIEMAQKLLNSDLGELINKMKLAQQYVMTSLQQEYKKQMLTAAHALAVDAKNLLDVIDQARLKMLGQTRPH", "assay": "Immunoblotting cellular kinase phosphorylation assay, NCI-H2228 cells", "type": "cell-based", "conditions": "4 hours treatment; read-out: FAK phosphorylation of NCI-H2228 cell line IC50", "procedure": "as §1"}, "SET-2 cell line": {"system": "SET-2 cell line", "assay": "Cell proliferation assay (CellTiter-Glo)", "type": "cell-based", "conditions": "Homo sapiens, 72 hours, JAK2 V617F mutation"}, "HCC78 cell line": {"system": "HCC78 cell line", "assay": "Cell proliferation assay (CellTiter-Glo)", "type": "cell-based", "conditions": "Homo sapiens, 72 hours, SLC34A2-ROS1 fusion gene"}, "[2]": {"system": "Ba/F3 EML4-ALK G1202R tumors", "assay": "Ba/F3 EML4-ALK G1202R subcutaneous xenograft model", "type": "in vivo, SCID/Beige mice", "conditions": "75 mg/kg BID orally, 17 days"}, "[3]": {"system": "Ba/F3 TEL-TRKB (ETV6-TRKB) G639R cell line", "assay": "Cell proliferation assay (CellTiter-Glo)", "type": "cell-based", "conditions": "Mus musculus, BaF3; 72 hours"}}}
{"smiles": "C[C@H]1CNC(=O)c2cnn3ccc(nc23)N[C@H](C)c2cc(F)ccc2O1", "note": "[Compound 1, (7S,13R)-11-fluoro-7,13-dimethyl-6,7,13,14-tetrahydro-1,15-ethenopyrazolo[4,3-f][1,4,8,10]benzoxatriazacyclotridecin-4(5H)-one]", "values": [{"measurement": "IC50", "setting": "HCK", "value": 0.0164, "unit": "µM"}, {"measurement": "IC50", "setting": "JAK3", "value": 0.05, "unit": "µM"}, {"measurement": "IC50", "setting": "BLK", "value": 0.0323, "unit": "µM"}, {"measurement": "IC50", "setting": "[1]", "value": "[…]"}, {"measurement": "mice exhibiting tumor regression", "setting": "Karpas 299 tumors", "value": "4 of 8"}, {"measurement": "IC50", "setting": "BTK", "value": 0.0237, "unit": "µM"}, {"measurement": "EGFR expression", "setting": "EGFR", "value": "down-regulated EGFR expression in a dose- and time-dependent manner"}, {"measurement": "IC50", "setting": "KM12 cell line", "value": 0.0003, "unit": "µM"}, {"measurement": "IC50", "setting": "PYK2", "value": 0.0399, "unit": "µM"}, {"measurement": "IC50", "setting": "STAT5", "value": "~0.158", "unit": "µM"}, {"measurement": "IC50", "setting": "FAK", "value": 0.1, "unit": "µM"}, {"measurement": "IC50", "setting": "SET-2 cell line", "value": 0.169, "unit": "µM"}, {"measurement": "IC50", "setting": "HCC78 cell line", "value": 0.0003, "unit": "µM"}, {"measurement": "mice exhibiting tumor regression", "setting": "[2]", "value": "4 of 8"}, {"measurement": "IC50", "setting": "[3]", "value": 0.0006, "unit": "µM"}]}
